Assays:
[1] = test system: recombinant NL4-3 virus (Renilla luciferase in nef); experiment: HIV cell culture assay (antiviral activity, luciferase readout in MT-2 cells); assay type: cell-based; details: Renilla, NL43
Experimental: HIV cell culture assay—MT=2 cells, 293T cells and the proviral DNA clone of NL4-3 virus were obtained from the NIH AIDS Research and Reference Reagent Program. MT=2 cells were propagated in RPMI 1640 media supplemented with 10% heat inactivated fetal bovine serum (FBS), […] penicillin G and up to 100 units/mL streptomycin. The 293T cells were propagated in DMEM media supplemented with 10% heat inactivated FBS, […] penicillin G and […] streptomycin. A recombinant NL4-3 proviral clone, in which a section of the nef gene was replaced with the Renilla luciferase gene, was used to make the reference virus used in these studies. The recombinant virus was prepared through transfection of the recombinant NL4-3 proviral clone into 293T cells using Transit-293 Transfection Reagent from Mirus Bio LLC (Madison, Wis.). Supernatent was harvested after 2-3 days and the amount of virus present was titered in MT=2 cells using luciferase enzyme activity as a marker by measuring luciferase enzyme activity. Luciferase was quantitated using the EnduRen Live Cell Substrate from Promega (Madison, Wis.). Antiviral activities of compounds toward the recombinant virus were quantified by measuring luciferase activity in MT=2 cells infected for 4-5 days with the recombinant virus in the presence of serial dilutions of the compound.
The 50% effective concentration (EC50) was calculated by using the exponential form of the median effect equation where (Fa)=1/[1+(ED50/drug conc.)m] (Johnson V A, Byington R T. Infectivity Assay. In Techniques in HIV Research. ed. Aldovini A, Walker B D. 71-76. New York: Stockton Press. 1990). The 50% inhibitory concentration (EC50) was calculated by using the exponential form of the median effect equation where percent inhibition=1/[1+(EC50/drug concentration)m], where m is a parameter that reflects the slope of the concentration-response curve.

[2] = Compound cytotoxicity, XTT-based colorimetric assay; assay type: cell-based; details: human; uninfected MT2 cells, day 4, XTT
Experimental: Compound cytotoxicity and the corresponding CC50 values were determined using the same protocol as described in the antiviral assay except that uninfected cells were used. Cytotoxicity was assessed on day 4 in uninfected MT2 cells by using an XTT (2,3-bis[2-Methoxy-4-nitro-5-sulfophenyl]-2H-tetrazolium-5-carboxyanilide inner salt)-based colorimetric assay (Sigma-Aldrich, St Louis, Mo.).

Row | SMILES | EC50 [1] [nM] | CC50 at 4 days [2] [nM]
1 | Cn1nc(NS(C)(=O)=O)c2c(Cl)ccc(-n3c([C@H](Cc4cc(F)cc(F)c4)NC(=O)Cn4nc(C(F)F)c5c4C(F)(F)[C@@H]4C[C@H]54)nc4cc(-c5ccnc(S(C)(=O)=O)n5)ccc4c3=O)c21 (atropisomer, axis not shown; (P)) [Example 9, N—((S)-1-((3P)-3-(4-chloro-1-methyl-3-(methylsulfonamido)-1H-indazol-7-yl)-7-(2-(methylsulfonyl)pyrimidin-4-yl)-4-oxo-3,4-dihydroquinazolin-2-yl)-2-(3,5-difluorophenyl)ethyl)-2-((3bS,4aR)-3-(difluoromethyl)-5,5-difluoro-3b,4,4a,5-tetrahydro-1H-cyclopropa[3,4]cyclopenta[1,2-c]pyrazol-1-yl)acetamide] | 0.15 | > 500
2 | Cn1nc(NS(C)(=O)=O)c2c(Cl)ccc(-n3c([C@H](Cc4cc(F)cc(F)c4)NC(=O)Cn4nc(C(F)F)c5c4C(F)(F)[C@@H]4C[C@H]54)nc4cc(-c5cnn(C6CC6)c5)ccc4c3=O)c21 (atropisomer, axis not shown; (P)) [Example 40, N—((S)-1-((3P)-3-(4-chloro-1-methyl-3-(methylsulfonamido)-1H-indazol-7-yl)-7-(1-cyclopropyl-1H-pyrazol-4-yl)-4-oxo-3,4-dihydroquinazolin-2-yl)-2-(3,5-difluorophenyl)ethyl)-2-((3bS,4aR)-3-(difluoromethyl)-5,5-difluoro-3b,4,4a,5-tetrahydro-1H-cyclopropa[3,4]cyclopenta[1,2-c]pyrazol-1-yl)acetamide] | 0.082 | > 100
3 | Cn1nc(NS(C)(=O)=O)c2c(Cl)ccc(-n3c([C@H](Cc4cc(F)cc(F)c4)NC(=O)Cn4nc(C(F)F)c5c4C(F)(F)[C@@H]4C[C@H]54)nc4cc(-c5ccn(CC(F)(F)C(F)(F)F)n5)ccc4c3=O)c21 (atropisomer, axis not shown; (P)) [Example 48, N—((S)-1-((3P)-3-(4-chloro-1-methyl-3-(methylsulfonamido)-1H-indazol-7-yl)-4-oxo-7-(1-(2,2,3,3,3-pentafluoropropyl)-1H-pyrazol-3-yl)-3,4-dihydroquinazolin-2-yl)-2-(3,5-difluorophenyl)ethyl)-2-((3bS,4aR)-3-(difluoromethyl)-5,5-difluoro-3b,4,4a,5-tetrahydro-1H-cyclopropa[3,4]cyclopenta[1,2-c]pyrazol-1-yl)acetamide] | 0.091 | > 100
4 | Cn1nc(NS(C)(=O)=O)c2c(Cl)ccc(-n3c([C@H](Cc4cc(F)cc(F)c4)NC(=O)Cn4nc(C(F)F)c5c4C(F)(F)[C@@H]4C[C@H]54)nc4cc(-c5ccc(F)c(C(F)(F)F)n5)ccc4c3=O)c21 (atropisomer, axis not shown; (P)) [Example 30, N—((S)-1-((3P)-3-(4-chloro-1-methyl-3-(methylsulfonamido)-1H-indazol-7-yl)-7-(5-fluoro-6-(trifluoromethyl)pyridin-2-yl)-4-oxo-3,4-dihydroquinazolin-2-yl)-2-(3,5-difluorophenyl)ethyl)-2-((3bS,4aR)-3-(difluoromethyl)-5,5-difluoro-3b,4,4a,5-tetrahydro-1H-cyclopropa[3,4]cyclopenta[1,2-c]pyrazol-1-yl)acetamide] | 0.22 | > 500
5 | COc1nccc(-c2ccc3c(=O)n(-c4ccc(Cl)c5c(NS(C)(=O)=O)nn(C)c45)c([C@H](Cc4cc(F)cc(F)c4)NC(=O)Cn4nc(C(F)F)c5c4C(F)(F)[C@@H]4C[C@H]54)nc3c2)n1 (atropisomer, axis not shown; (P)) [Example 5, N—((S)-1-((3P)-3-(4-chloro-1-methyl-3-(methylsulfonamido)-1H-indazol-7-yl)-7-(2-methoxypyrimidin-4-yl)-4-oxo-3,4-dihydroquinazolin-2-yl)-2-(3,5-difluorophenyl)ethyl)-2-((3bS,4aR)-3-(difluoromethyl)-5,5-difluoro-3b,4,4a,5-tetrahydro-1H-cyclopropa[3,4]cyclopenta[1,2-c]pyrazol-1-yl)acetamide] | 0.083 | > 500
6 | Cn1nc(NS(C)(=O)=O)c2c(Cl)ccc(-n3c([C@H](Cc4cc(F)cc(F)c4)NC(=O)Cn4nc(C(F)F)c5c4C(F)(F)[C@@H]4C[C@H]54)nc4cc(-c5ccnc(C(F)(F)F)n5)ccc4c3=O)c21 (atropisomer, axis not shown; (P)) [Example 27, N—((S)-1-((3P)-3-(4-chloro-1-methyl-3-(methylsulfonamido)-1H-indazol-7-yl)-4-oxo-7-(2-(trifluoromethyl)pyrimidin-4-yl)-3,4-dihydroquinazolin-2-yl)-2-(3,5-difluorophenyl)ethyl)-2-((3bS,4aR)-3-(difluoromethyl)-5,5-difluoro-3b,4,4a,5-tetrahydro-1H-cyclopropa[3,4]cyclopenta[1,2-c]pyrazol-1-yl)acetamide] | 0.066 | > 100
7 | Cn1nc(NS(C)(=O)=O)c2c(Cl)ccc(-n3c([C@H](Cc4cc(F)cc(F)c4)NC(=O)Cn4nc(C(F)F)c5c4C(F)(F)[C@@H]4C[C@H]54)nc4cc(-c5ccn(CCCF)n5)ccc4c3=O)c21 (atropisomer, axis not shown; (P)) [Example 51, N—((S)-1-((3P)-3-(4-chloro-1-methyl-3-(methylsulfonamido)-1H-indazol-7-yl)-7-(1-(3-fluoropropyl)-1H-pyrazol-3-yl)-4-oxo-3,4-dihydroquinazolin-2-yl)-2-(3,5-difluorophenyl)ethyl)-2-((3bS,4aR)-3-(difluoromethyl)-5,5-difluoro-3b,4,4a,5-tetrahydro-1H-cyclopropa[3,4]cyclopenta[1,2-c]pyrazol-1-yl)acetamide] | 0.042 | > 100
8 | Cn1nc(NS(C)(=O)=O)c2c(Cl)ccc(-n3c([C@H](Cc4cc(F)cc(F)c4)NC(=O)Cn4nc(C(F)F)c5c4C(F)(F)[C@@H]4C[C@H]54)nc4cc(-n5nccc5C(F)(F)F)ccc4c3=O)c21 (atropisomer, axis not shown; (P)) [Example 32, N—((S)-1-((3P)-3-(4-chloro-1-methyl-3-(methylsulfonamido)-1H-indazol-7-yl)-4-oxo-7-(5-(trifluoromethyl)-1H-pyrazol-1-yl)-3,4-dihydroquinazolin-2-yl)-2-(3,5-difluorophenyl)ethyl)-2-((3bS,4aR)-3-(difluoromethyl)-5,5-difluoro-3b,4,4a,5-tetrahydro-1H-cyclopropa[3,4]cyclopenta[1,2-c]pyrazol-1-yl)acetamide] | 0.079 | > 100
9 | Cn1nc(NS(C)(=O)=O)c2c(Cl)ccc(-n3c([C@H](Cc4cc(F)cc(F)c4)NC(=O)Cn4nc(C(F)F)c5c4C(F)(F)[C@@H]4C[C@H]54)nc4cc(-c5ccn(CCCC(F)(F)F)n5)ccc4c3=O)c21 (atropisomer, axis not shown; (P)) [Example 53, N—((S)-1-((3P)-3-(4-chloro-1-methyl-3-(methylsulfonamido)-1H-indazol-7-yl)-4-oxo-7-(1-(4,4,4-trifluorobutyl)-1H-pyrazol-3-yl)-3,4-dihydroquinazolin-2-yl)-2-(3,5-difluorophenyl)ethyl)-2-((3bS,4aR)-3-(difluoromethyl)-5,5-difluoro-3b,4,4a,5-tetrahydro-1H-cyclopropa[3,4]cyclopenta[1,2-c]pyrazol-1-yl)acetamide] | 0.1 | > 100
10 | Cn1nc(NS(C)(=O)=O)c2c(Cl)ccc(-n3c([C@H](Cc4cc(F)cc(F)c4)NC(=O)Cn4nc(C(F)F)c5c4C(F)(F)[C@@H]4C[C@H]54)nc4cc(-c5cnn(CC(F)F)c5)ccc4c3=O)c21 (atropisomer, axis not shown; (P)) [Example 34, N—((S)-1-((3P)-3-(4-chloro-1-methyl-3-(methylsulfonamido)-1H-indazol-7-yl)-7-(1-(2,2-difluoroethyl)-1H-pyrazol-4-yl)-4-oxo-3,4-dihydroquinazolin-2-yl)-2-(3,5-difluorophenyl)ethyl)-2-((3bS,4aR)-3-(difluoromethyl)-5,5-difluoro-3b,4,4a,5-tetrahydro-1H-cyclopropa[3,4]cyclopenta[1,2-c]pyrazol-1-yl)acetamide] | 0.054 | > 100
11 | Cn1nc(NS(C)(=O)=O)c2c(Cl)ccc(-n3c([C@H](Cc4cc(F)cc(F)c4)NC(=O)Cn4nc(C(F)F)c5c4C(F)(F)[C@@H]4C[C@H]54)nc4cc(-c5ccnc(CF)n5)ccc4c3=O)c21 (atropisomer, axis not shown; (P)) [Example 55, N—((S)-1-((3P)-3-(4-chloro-1-methyl-3-(methylsulfonamido)-1H-indazol-7-yl)-7-(2-(fluoromethyl)pyrimidin-4-yl)-4-oxo-3,4-dihydroquinazolin-2-yl)-2-(3,5-difluorophenyl)ethyl)-2-((3bS,4aR)-3-(difluoromethyl)-5,5-difluoro-3b,4,4a,5-tetrahydro-1H-cyclopropa[3,4]cyclopenta[1,2-c]pyrazol-1-yl)acetamide] | 0.056 | > 100

— patent US20230013823A1, “INHIBITORS OF HUMAN IMMUNODEFICIENCY VIRUS REPLICATION” (VIV HEALTHCARE UK (No. 5) LIMITED, priority 2019, published 2023)
